Data from PMC9220178, “Preclinical Characterization of Antioxidant Quinolyl Nitrone QN23 as a New Candidate for the Treatment of Ischemic Stroke” (Antioxidants, 2022).

How the values were obtained:
[1] = test system: male Wistar rats, transient middle cerebral artery occlusion (tMCAO); experiment: Infarct and edema volume (TTC staining) in transient focal cerebral ischemia (tMCAO); type: in vivo, rat; settings: 48 h after tMCAO
Procedure: (§1) For the transient focal cerebral ischemia experimental model we used 12-week-old male Wistar rats (300–350 g, Charles River), housed under standard conditions with food and water ad libitum. The animals were anesthetized by an intraperitoneal injection of a mixture of 100 mg/kg ketamine, 5 mg/kg diazepam, and 0.3 mg/kg atropine. Anesthesia was maintained during the surgical procedure by inhalation of 1–1.5% sevoflurane in 80% medicinal air plus 20% O2. For the transient occlusion of the right middle cerebral artery (tMCAO, 60 min), we followed the intraluminal suture procedure as originally described, adapted to our experimental setup. The procedure included continuous monitoring of cortical perfusion (CP, by Laser-Doppler flowmetry), arterial blood pressure, and core temperature, and discontinuous measurement of glycemia levels during preischemia (basal), ischemia, and reperfusion stages. Buprenorphine (subcutaneous, 0.05 mg/kg) was used as an analgesic. Forty-eight hours after the ischemic insult, the animals were euthanized by intracardiac injection of potassium chloride (200 mg/kg) under deep anesthesia, and the brains were obtained.
A power analysis (see above) provided a sample size of 6 subjects per group. A total of 35 animals was used in this study. […]
Brain infarct volume was determined by the 2,3,5-triphenyltetrazolium chloride (TTC; Sigma-Aldrich, Merck KGaA, Darmstadt, Germany) vital staining method, followed by morphometric analysis by a researcher blind to the treatment allocation. […] In order to correct for the influence of edema, the infarcted area was calculated as follows: corrected infarct area = infarct area × (contralateral hemisphere area / ipsilateral hemisphere area). The corrected infarct area was measured on both the anterior and the posterior sides of each slice and averaged; the corrected infarct volume was calculated by multiplying the average corrected infarct area by the thickness of the slice (2 mm), and the total corrected infarct volume by adding up the corrected infarct volume of the seven slices. […]

[2] = test system: adult male Wistar rats, four-vessel occlusion (4VO) transient forebrain ischemia; experiment: Long-term behavioral tests in the Y maze; type: in vivo, rat; settings: 2.0 mg/kg i.v. at reperfusion onset, 11 weeks after ischemia
Procedure: Long-term assessment of neurological damage after the ischemic episode was performed by the evaluation of the spontaneous exploratory activity (spatial recognition) and spatial memory skills in the Y maze.
For the assessment of the exploratory activity and spatial recognition, control animals and ischemic animals treated with vehicle, QN23, or NXY-059 were placed in the center of the maze and allowed free exploration for 8 min. An independent researcher blind to the treatment allocation registered the total number of arms that the animal entered indistinctly (arm entries), and the times that the animal explored the three different arms of the maze consecutively (alternations or triads).
For the assessment of spatial memory, experiments consisted of two trials. For the first trial (training), control and ischemic animals treated with vehicle or QN23 were placed into one of the arms (start arm) and allowed to explore the Y maze for 10 min with one of the arms closed. One hour after the training trial, the animals were returned to the Y maze and the second trial was conducted. The animals were placed in the same start arm as in the training trial, but now with the remaining two arms of the maze available for exploration for 3 min. A researcher blind to the treatment allocation registered the first choice of arm for entry (novel or old).

[3] = test system: carrageenan-induced rat paw edema; parameters: method as in PMID 30715875; settings: cited from earlier work
[4] = test system: male Wistar rats, transient middle cerebral artery occlusion (tMCAO); experiment: Neurofunctional score in transient focal cerebral ischemia (tMCAO); type: in vivo; settings: for Neurofunctional impairment compared with vehicle: 24 h and 48 h
Procedure: as §1
A power analysis (see above) provided a sample size of 6 subjects per group. A total of 35 animals was used in this study. The animals were randomly assigned to four experimental tMCAO groups, treated with (1) vehicle; (2) QN23, 1.5 mg/kg; (3) QN23, 2.5 mg/kg; and (4) QN23, 4 mg/kg. QN23 was dissolved in vehicle and injected through the femoral vein 20 min after the end of tMCAO. Nine animals were excluded from the study, based on predefined criteria, because of death within the first 24 h after the procedure (1 vehicle, 1 QN23-treated at 2.5 mg/kg, and 4 QN23-treated at 4.0 mg/kg) or due to no infarct after the procedure (1 vehicle, 1 QN23-treated at 1.5 mg/kg, and 1 QN23-treated at 2.5 mg/kg). Experiments were conducted in compliance with the legislation on the protection of animals used for scientific purposes in Spain (RD 53/2013) and the EU (Directive 2010/63/EU). […]
Twenty-four and 48 hours after the ischemic insult, the rats’ neurofunctional status was evaluated following the procedure previously reported. The severity of functional deficits was determined with the sum of the score of four tests assessing (a) spontaneous activity (moving/exploring = 0, no moving or moving only when pushed = 1), (b) circling to the left (none = 0, circling when elevated by the tail and pushed = 1, circling without displacement, spinning = 2), (c) parachute reflex: protective abduction of forelimbs (symmetrical = 0, asymmetrical, contralateral forelimb retracted = 1), and (d) resistance to left forepaw stretching (not allowed = 0, allowed = 1). […]

SMILES: COc1ccc2nc(Cl)c(/C=[N+](\[O-])C(C)(C)C)cc2c1 [QN23, (Z)-N-tert-Butyl-1-(2-chloro-6-methoxyquinolin-3-yl)methanimine Oxide]
- Brain damage (total infarct volume) compared with vehicle ([1]; 1.5 mg/kg and 2.5 mg/kg i.v.): significantly reduced brain damage
- Edema volume compared with vehicle ([1]; 1.5 mg/kg and 2.5 mg/kg i.v.): reduced
- Brain damage (total infarct volume) compared with vehicle ([1]; 4 mg/kg i.v.): not at 4 mg/kg
- Y maze arm entries (exploratory activity) [2]: higher number of new entries
- Y maze alternations (triads completed), spatial recognition ([2]; vehicle 5.0, control 15.75): 7.8
- Percentage of animals exploring the novel arm as a first choice (spatial memory) ([2]; vehicle 17%, control 75%): 67%
- Anti-inflammatory activity [3]: showed anti-inflammatory properties
- Neurofunctional impairment compared with vehicle ([4]; 1.5 mg/kg and 2.5 mg/kg i.v. 20 min after end of tMCAO): significantly reduced
- Animals that died within 24 h ([4]; 2.5 mg/kg i.v., tMCAO): one
- Neurofunctional impairment compared with vehicle ([4]; 4 mg/kg i.v. 20 min after end of tMCAO): not at 4 mg/kg
- Animals that died before 24 h ([4]; 4 mg/kg i.v., tMCAO): four
